According to PMC11583123, “Linker Chemistry and Connectivity Fine-Tune the Immune Response and Kinetic Solubility of Conjugated NOD2/TLR7 Agonists” (Bioconjugate Chemistry, 2024):

How the values were obtained:
[1] = Kinetic solubility in PBS (UHPLC, method of Hoelke et al.); type: physicochemical; conditions: for solubility kinetic: PBS, aqueous with cosolvent or surfactant or cyclodextrin, kinetic from dmso stock, 5% DMSO
Experimental: Second, the kinetic solubility of all individual building blocks (compounds 4-7) and conjugates was determined (results are listed in Table 1) in order to highlight how fine-tuning of linker traits can impact this physicochemical property. Kinetic solubility refers to the maximum solubility of a compound when it precipitates from a supersaturated solution, which is metastable and not in equilibrium; it was measured using the method described by Hoelke et al.[34] The length and composition of the linker as well as linkage site are important for activity and physicochemical characteristics of conjugates, which in turn affect their pharmacokinetic profiles. In general, the benzylic COOH was exploited exclusively as the linker attachment site in TLR7 agonist-featuring conjugates, while two potential linkage sites were considered in the structure of NOD2 agonist. […] In conjugates 22-24 and 29, the moieties were connected via the γ-COOH group of the NOD2 agonist. […] It has to be kept in mind that among the polyalkylethers, the structural requirements for aqueous solubility are poised toward the (−OCH2CH2−)n unit while (−OCH2CH2CH2−)n is not beneficial in this respect.[35] […]
suspension was filtered through a syringe filter (0.45 μm), diluted 2.25-fold with acetonitrile, and analyzed with UHPLC. The solubility was quantified with a five-point calibration curve from 500 to 0.8 μM generated by dilution of the original DMSO solution into a 1:1 mixture of acetonitrile and PBS. The content of DMSO in all solutions was fixed to 5% by adding the respective amounts of DMSO. The column used was Waters Acquity UPLC BEH C18 (1.7 μm, 2.1 × 50 mm). The eluent was a mixture of 0.1% TFA in water (A) and acetonitrile (B), with a gradient of (%B): 0−6 min, 5−95%; 6−8 min, 95%; 8−8.5 min, 95−5%. The column was thermostated at 40 °C.
3.1. Hek-Blue NOD2, TLR7 and TLR8 cells. […]
(BioTek Synergy microplate reader; Winooski, VT, USA). EC50 values were calculated using Prism

human TLR7 = target: T1, human TLR7 (Homo sapiens, UniProt Q9NYK1); assay: HEK-Blue TLR7 NF-κB SEAP reporter assay; type: cell-based; conditions: for EC50 / TLR7 agonistic activity (in words): HEK-Blue TLR7 cells; for EC50: 18 h, eight concentrations (1 nM to 10 μM), mean ± SEM; for TLR7 agonistic activity (in words): up to 10 μM
T1 construct: host or cells: HEK-Blue TLR7 (HEK293-derived)
T1 sequence (Q9NYK1 27-1049): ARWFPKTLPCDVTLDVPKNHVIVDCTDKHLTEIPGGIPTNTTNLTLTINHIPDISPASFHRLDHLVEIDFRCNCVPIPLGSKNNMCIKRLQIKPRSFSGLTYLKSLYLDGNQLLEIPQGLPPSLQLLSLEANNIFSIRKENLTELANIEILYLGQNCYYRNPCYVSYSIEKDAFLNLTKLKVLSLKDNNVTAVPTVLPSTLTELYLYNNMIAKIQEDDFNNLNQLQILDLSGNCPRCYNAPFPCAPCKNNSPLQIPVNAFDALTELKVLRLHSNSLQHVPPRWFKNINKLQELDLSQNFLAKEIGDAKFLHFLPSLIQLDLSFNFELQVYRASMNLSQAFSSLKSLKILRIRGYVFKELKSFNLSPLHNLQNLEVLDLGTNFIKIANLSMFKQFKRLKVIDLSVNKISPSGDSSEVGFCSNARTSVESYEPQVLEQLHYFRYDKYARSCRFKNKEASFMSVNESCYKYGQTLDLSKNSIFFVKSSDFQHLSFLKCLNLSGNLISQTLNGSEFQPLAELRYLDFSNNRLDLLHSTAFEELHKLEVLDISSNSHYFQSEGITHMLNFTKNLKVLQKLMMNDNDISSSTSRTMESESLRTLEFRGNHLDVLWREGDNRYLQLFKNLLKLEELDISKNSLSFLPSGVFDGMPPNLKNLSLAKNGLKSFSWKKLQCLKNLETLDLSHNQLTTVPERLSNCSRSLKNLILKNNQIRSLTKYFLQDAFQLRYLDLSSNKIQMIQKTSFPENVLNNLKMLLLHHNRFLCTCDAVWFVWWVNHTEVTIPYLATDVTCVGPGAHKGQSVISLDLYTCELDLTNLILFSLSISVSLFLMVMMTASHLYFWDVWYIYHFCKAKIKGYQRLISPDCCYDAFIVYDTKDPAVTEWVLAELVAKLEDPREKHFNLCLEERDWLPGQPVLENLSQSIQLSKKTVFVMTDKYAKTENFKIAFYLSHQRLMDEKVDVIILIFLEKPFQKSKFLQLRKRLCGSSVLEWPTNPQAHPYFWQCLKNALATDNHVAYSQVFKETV
Description: (§1) The building blocks and synthesized conjugates were initially assessed for their receptor-specific activities toward NOD2, TLR7 and TLR8 using the commercially available HEK-Blue NOD2, TLR7 and TLR8 reporter cell lines. These cell lines were derived from HEK293 cells by cotransfection of human NOD2/TLR7/TLR8 and an NF-κB-inducible secreted embryonic alkaline phosphatase (SEAP). Activation of NOD2/TLR7/TLR8, and subsequently of NF-κB, leads to the expression and secretion of SEAP, the levels of which can be quantified colorimetrically. […]
(§2) 3.1. Hek-Blue NOD2, TLR7 and TLR8 cells.
(§3) HEK-Blue NOD2, TLR7, and TLR8 cells (Invivogen, San Diego, CA, USA) were cultured according to the manufacturer instructions in Dulbecco’s modified Eagle’s medium (Sigma-Aldrich, St. Louis, MO, USA) supplemented with 10% heat-inactivated fetal bovine serum (Gibco), 2 mM L-glutamine (Sigma-Aldrich), 100 U/mL penicillin (Sigma-Aldrich), 100 µg/mL streptomycin (Sigma-Aldrich), and 100 µg/mL Normocin (Invivogen) for two passages. All subsequent passages of NOD2 and TLR8 cells were cultured in medium additionally supplemented with 100 µg/mL Zeocin and 30 µg/mL Blasticidin (Invivogen) and of TLR7 cells with 100 µg/mL Zeocin and 10 µg/mL Blasticidin. […]
(§4) The tested compounds were dissolved in DMSO and further diluted in culture medium to the desired final concentrations, such that the final DMSO concentration never exceeded 0.1%. […]
(§5) 3.4 NOD2/TLR7/TLR8 NF-kB reporter assay
(§6) HEK-Blue NOD2 cells (25,000 cells/well), TLR7 and TLR8 cells (40,000 cells/well) were seeded in 96-well plates in 100 µL HEK-Blue detection medium (Invivogen, San Diego, CA, USA) and treated with […]
(§7) corresponding vehicle (0.1% DMSO). After 18 h of incubation (37 °C, 5% CO2), secreted embryonic

human NOD2 = target: T2, human NOD2 (Homo sapiens, UniProt Q9HC29); assay: HEK-Blue NOD2 NF-κB SEAP reporter assay; type: cell-based; conditions: HEK-Blue NOD2 cells
T2 construct: host or cells: HEK-Blue NOD2 (HEK293-derived)
Description: as §1, §2, §3, §4, §5, §6, §7

human TLR8 = target: T3, human TLR8 (Homo sapiens, UniProt Q9NR97); assay: HEK-Blue TLR8 NF-κB SEAP reporter assay; type: cell-based; conditions: HEK-Blue TLR8 cells, 18 h, eight concentrations (1 nM to 10 μM), mean ± SEM
T3 construct: host or cells: HEK-Blue TLR8 (HEK293-derived)
T3 sequence (Q9NR97 27-1041): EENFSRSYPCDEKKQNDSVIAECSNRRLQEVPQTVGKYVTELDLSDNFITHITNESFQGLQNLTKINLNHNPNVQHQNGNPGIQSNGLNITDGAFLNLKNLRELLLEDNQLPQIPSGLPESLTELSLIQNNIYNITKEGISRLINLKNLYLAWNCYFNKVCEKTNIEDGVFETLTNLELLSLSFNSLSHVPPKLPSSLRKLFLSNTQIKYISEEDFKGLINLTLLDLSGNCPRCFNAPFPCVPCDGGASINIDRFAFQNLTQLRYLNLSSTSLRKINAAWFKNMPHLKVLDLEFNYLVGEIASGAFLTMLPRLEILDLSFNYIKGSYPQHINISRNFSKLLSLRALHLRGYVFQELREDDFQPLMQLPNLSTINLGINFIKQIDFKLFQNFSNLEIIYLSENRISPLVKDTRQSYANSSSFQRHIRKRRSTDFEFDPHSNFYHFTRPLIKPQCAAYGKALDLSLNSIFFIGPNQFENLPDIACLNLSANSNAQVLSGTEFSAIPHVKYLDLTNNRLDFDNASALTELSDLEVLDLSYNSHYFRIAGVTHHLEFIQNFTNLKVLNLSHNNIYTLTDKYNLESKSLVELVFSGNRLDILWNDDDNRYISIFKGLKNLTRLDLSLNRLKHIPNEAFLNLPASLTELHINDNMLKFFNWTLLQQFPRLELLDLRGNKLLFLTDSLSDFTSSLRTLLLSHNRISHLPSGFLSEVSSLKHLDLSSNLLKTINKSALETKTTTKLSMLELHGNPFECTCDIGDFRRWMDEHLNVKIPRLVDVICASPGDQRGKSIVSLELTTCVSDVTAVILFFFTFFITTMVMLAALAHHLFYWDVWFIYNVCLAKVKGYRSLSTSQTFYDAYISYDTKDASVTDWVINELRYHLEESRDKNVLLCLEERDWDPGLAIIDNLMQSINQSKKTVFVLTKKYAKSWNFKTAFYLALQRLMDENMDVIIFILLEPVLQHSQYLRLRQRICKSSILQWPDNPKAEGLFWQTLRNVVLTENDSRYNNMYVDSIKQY
Description: as §1, §2, §3, §4, §5, §6, §7

[2] = 18 h, eight concentrations (1 nM to 10 μM), mean ± SEM

T2 sequence (Q9HC29 whole entry): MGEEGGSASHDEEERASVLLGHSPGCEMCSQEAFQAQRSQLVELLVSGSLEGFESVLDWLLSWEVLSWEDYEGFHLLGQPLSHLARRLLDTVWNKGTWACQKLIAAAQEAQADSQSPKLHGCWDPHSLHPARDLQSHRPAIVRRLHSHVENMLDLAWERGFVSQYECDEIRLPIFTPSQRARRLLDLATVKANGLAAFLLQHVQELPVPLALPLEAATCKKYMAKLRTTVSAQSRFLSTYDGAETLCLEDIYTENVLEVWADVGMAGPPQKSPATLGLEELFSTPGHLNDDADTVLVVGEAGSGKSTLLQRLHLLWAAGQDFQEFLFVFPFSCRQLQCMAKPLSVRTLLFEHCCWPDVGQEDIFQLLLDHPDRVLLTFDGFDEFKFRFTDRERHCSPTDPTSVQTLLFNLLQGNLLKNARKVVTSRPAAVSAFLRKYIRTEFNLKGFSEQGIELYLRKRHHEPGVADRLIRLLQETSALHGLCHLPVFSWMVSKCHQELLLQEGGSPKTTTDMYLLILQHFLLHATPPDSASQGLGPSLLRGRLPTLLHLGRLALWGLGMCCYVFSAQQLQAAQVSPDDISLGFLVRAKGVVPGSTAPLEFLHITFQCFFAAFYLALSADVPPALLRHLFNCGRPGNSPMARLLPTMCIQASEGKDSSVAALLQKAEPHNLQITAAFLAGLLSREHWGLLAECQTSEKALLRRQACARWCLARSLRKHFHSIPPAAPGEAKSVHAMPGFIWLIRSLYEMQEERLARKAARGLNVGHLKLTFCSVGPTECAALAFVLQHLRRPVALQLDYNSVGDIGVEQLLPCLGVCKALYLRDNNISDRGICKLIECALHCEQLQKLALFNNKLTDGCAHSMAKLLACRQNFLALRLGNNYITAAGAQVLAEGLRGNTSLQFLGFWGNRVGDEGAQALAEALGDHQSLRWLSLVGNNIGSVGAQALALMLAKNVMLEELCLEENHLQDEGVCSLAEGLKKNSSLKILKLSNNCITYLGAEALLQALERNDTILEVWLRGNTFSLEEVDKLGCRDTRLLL

## CCCCOc1nc(N)c2nc(O)n(Cc3ccc(C(=O)O)cc3)c2n1 [compound 4, reference compound]
[1]
  solubility kinetic: 483 µM
Human TLR7
  EC50: 226 ± 14.5 nM

## CCCCOc1nc(N)c2nc(O)n(Cc3ccc(C(=O)NCCOCCOCCOCCn4cc(CNC(=O)CC[C@@H](NC(=O)[C@@H](NC(=O)CNC(=O)/C=C/c5ccc(O)c(OC)c5)C(C)C)C(=O)OCC)nn4)cc3)c2n1 [compound 29]
[1]
  solubility kinetic: 35.4 µM
Human NOD2; [2]
  EC50: > 10000 nM
Human TLR7
  EC50: 391 nM
  TLR7 agonistic activity (in words): activated TLR7 in the midnanomolar range

## CCCCOc1nc(N)c2nc(O)n(Cc3ccc(C(=O)NCCCOCCOCCOCCCNC(=O)CC[C@@H](NC(=O)[C@@H](NC(=O)CNC(=O)/C=C/c4ccc(O)c(OC)c4)C(C)C)C(=O)OCC)cc3)c2n1 [compound 23]
[1]
  solubility kinetic: 38.6 µM
Human NOD2; [2]
  EC50: > 10000 nM
Human TLR7
  EC50: 165 nM
  TLR7 agonistic activity (in words): activated TLR7 in the midnanomolar range
Human TLR7; ratio of EC50 values
  Enhancement of TLR7 activity over 22 and 29: 2.5 fold

## CCCCOc1nc(N)c2nc(O)n(Cc3ccc(C(=O)NCCOCCNC(=O)CC[C@@H](NC(=O)[C@@H](NC(=O)CNC(=O)/C=C/c4ccc(O)c(OC)c4)C(C)C)C(=O)OCC)cc3)c2n1 [compound 2]
[1]
  solubility kinetic: 3.67 µM
Human NOD2; [2]
  EC50: > 10000 nM
Human TLR7
  EC50: 21.4 ± 1 nM

## CCCCOc1nc(N)c2nc(O)n(Cc3ccc(C(=O)NCCCCCCNC(=O)CC[C@@H](NC(=O)[C@@H](NC(=O)CNC(=O)/C=C/c4ccc(O)c(OC)c4)C(C)C)C(=O)OCC)cc3)c2n1 [compound 24]
[1]
  solubility kinetic: 2.8 µM
Human NOD2
  EC50: 6200 nM
Human NOD2; [2]
  EC50: 6160 ± 1250 nM
Human TLR7
  EC50: 238 nM
  TLR7 agonistic activity (in words): activated TLR7 in the midnanomolar range

## CCCCOc1nc(N)c2nc(O)n(Cc3ccc(C(=O)NCCOCCOCCNC(=O)CC[C@@H](NC(=O)[C@@H](NC(=O)CNC(=O)/C=C/c4ccc(O)c(OC)c4)C(C)C)C(=O)OCC)cc3)c2n1 [compound 22]
[1]
  solubility kinetic: 85.4 µM
[1]; ratio of kinetic solubilities in PBS
  Boost in solubility over conjugate 2: ~25 fold
Human NOD2; [2]
  EC50: > 10000 nM
Human TLR7
  EC50: 419 nM
  TLR7 agonistic activity (in words): activated TLR7 in the midnanomolar range

## CCCCOc1nc(N)c2nc(O)n(Cc3ccc(C(=O)NCCCCCC(=O)Oc4ccc(/C=C/C(=O)NCC(=O)N[C@H](C(=O)N[C@H](CCC(=O)OCC)C(=O)OCC)C(C)C)cc4OC)cc3)c2n1 [compound 1]
[1]
  solubility kinetic: 1.9 µM
Human NOD2; [2]
  EC50: 105 ± 2.8 nM
Human TLR7
  EC50: 98.6 ± 1.1 nM

## CCOCc1nc2c(N)nc3ccccc3c2n1CC(C)(C)N [compound 7, reference compound]
[1]
  solubility kinetic: 337 µM
Human TLR7
  EC50: 1820 ± 97 nM
Human TLR8
  EC50: 5900 ± 1790 nM

## CCOCc1nc2c(N)nc3ccccc3c2n1CC(C)(C)O [Resiquimod (6), Resiquimod, reference compound]
[1]
  solubility kinetic: 469 µM

## CCOC(=O)CCC(NC(=O)C(NC(=O)CNC(=O)C=Cc1ccc(O)c(OC)c1)C(C)C)C(=O)OCC (stereo not drawn) [compound 5]
[1]
  solubility kinetic: 415 µM

## CCCCOc1nc(N)c2nc(O)n(Cc3ccc(C(=O)NCCOCCOCCNC(=O)[C@@H](CCC(=O)OCC)NC(=O)[C@@H](NC(=O)CNC(=O)/C=C/c4ccc(O)c(OC)c4)C(C)C)cc3)c2n1 [compound 26]
[1]
  solubility kinetic: 9.2 µM
Human NOD2; [2]
  EC50: > 10000 nM
Human TLR7
  EC50: 247 nM
  TLR7 agonistic activity (in words): activated TLR7 in the midnanomolar range
